The series concerns CCRIS mutagenicity, Ames/micronucleus/aberration tests. Nature of the series: CCRIS mutagenicity studies.
Setting [1] is: Test System: AMES SALMONELLA TYPHIMURIUM, Strain/Indicator: TA98, Metabolic Activation: NONE, Method: STANDARD PLATE.
The mark [2] stands for this setting: Test System: AMES SALMONELLA TYPHIMURIUM, Strain/Indicator: TA100, Metabolic Activation: NONE, Method: STANDARD PLATE.
Setting [3] is: Test System: AMES SALMONELLA TYPHIMURIUM, Strain/Indicator: TA1535, Metabolic Activation: NONE, Method: STANDARD PLATE.
[4] abbreviates: Test System: AMES SALMONELLA TYPHIMURIUM, Strain/Indicator: TA98, Metabolic Activation: RAT, LIVER, S-9, AROCLOR 1254, Method: STANDARD PLATE.
Setting [5] is: Test System: AMES SALMONELLA TYPHIMURIUM, Strain/Indicator: TA100, Metabolic Activation: RAT, LIVER, S-9, AROCLOR 1254, Method: STANDARD PLATE.
[6] abbreviates: Test System: AMES SALMONELLA TYPHIMURIUM, Strain/Indicator: TA100, Metabolic Activation: S-9, Method: STANDARD PLATE.

Calls of active or inactive are those of the source. The rule behind the calls is not given here.

As to `CC[C@H](C)[C@H](NC(=O)[C@H](Cc1ccc(O)cc1)NC(=O)CNC(=O)[C@@H](NC(=O)[C@@H](NC(=O)[C@H](CS)NC(=O)[C@H](CC(N)=O)NC(=O)[C@H](CS)NC(=O)[C@H](C)NC(=O)[C@H](Cc1ccc(O)cc1)NC(=O)[C@H](CCCCN)NC(=O)[C@H](CC(=O)O)NC(=O)[C@H](CC(C)C)NC(=O)[C@H](C)NC(=O)[C@H](CCC(=O)O)NC(=O)[C@@H](NC(=O)[C@H](Cc1ccc(O)cc1)NC(=O)[C@H](CCSC)NC(=O)[C@H](CS)NC(=O)[C@@H](NC(=O)CNC(=O)[C@H](CC(=O)O)NC(=O)[C@H](Cc1cnc[nH]1)NC(=O)[C@H](CC(C)C)NC(=O)[C@H](CS)NC(=O)[C@H](Cc1ccc(O)cc1)NC(=O)CNC(=O)[C@H](CC(=O)O)NC(=O)[C@H](Cc1cnc[nH]1)NC(=O)[C@H](CO)NC(=O)[C@H](CC(C)C)NC(=O)[C@@H]1CCCN1C(=O)[C@H](CS)NC(=O)[C@H](CCC(=O)O)NC(=O)[C@H](CO)NC(=O)[C@H](CC(=O)O)NC(=O)[C@H](CO)NC(=O)[C@@H](N)CC(N)=O)C(C)C)[C@@H](C)CC)C(C)C)C(C)C)C(=O)NCC(=O)N[C@@H](CCC(=O)O)C(=O)N[C@@H](CCCNC(=N)N)C(=O)N[C@@H](CS)C(=O)N[C@@H](CCC(N)=O)C(=O)N[C@@H](Cc1ccc(O)cc1)C(=O)N[C@@H](CCCNC(=N)N)C(=O)N[C@@H](CC(=O)O)C(=O)N[C@@H](CC(C)C)C(=O)N[C@@H](CCCCN)C(=O)N[C@@H](Cc1c[nH]c2ccccc12)C(=O)N[C@@H](Cc1c[nH]c2ccccc12)C(=O)N[C@@H](CCC(=O)O)C(=O)N[C@@H](CC(C)C)C(=O)N[C@@H](CCCNC(=N)N)C(=O)O`, the mutagenic call by setting is: under setting [1], “inactive; negative”; (Test System: AMES SALMONELLA TYPHIMURIUM, Strain/Indicator: TA98, Metabolic Activation: RAT, LIVER, S-9, PHENOBARBITAL AND 5,6-BENZOFLAVONE, Method: STANDARD PLATE) “inactive; negative”; under setting [2], “inactive; negative”; (Test System: AMES SALMONELLA TYPHIMURIUM, Strain/Indicator: TA100, Metabolic Activation: RAT, LIVER, S-9, PHENOBARBITAL AND 5,6-BENZOFLAVONE, Method: STANDARD PLATE) “inactive; negative”; under setting [3], “inactive; negative”; (Test System: AMES SALMONELLA TYPHIMURIUM, Strain/Indicator: TA1535, Metabolic Activation: RAT, LIVER, S-9, PHENOBARBITAL AND 5,6-BENZOFLAVONE, Method: STANDARD PLATE) “inactive; negative”. Moreover, the mutagenic call reads like this: (Test System: AMES SALMONELLA TYPHIMURIUM, Strain/Indicator: TA1537, Metabolic Activation: NONE, Method: STANDARD PLATE) “inactive; negative”; (Test System: AMES SALMONELLA TYPHIMURIUM, Strain/Indicator: TA1537, Metabolic Activation: RAT, LIVER, S-9, PHENOBARBITAL AND 5,6-BENZOFLAVONE, Method: STANDARD PLATE) “inactive; negative”; (Test System: E. COLI, Strain/Indicator: WP2 UVRA, Metabolic Activation: NONE, Method: STANDARD PLATE) “inactive; negative”; (Test System: E. COLI, Strain/Indicator: WP2 UVRA, Metabolic Activation: RAT, LIVER, S-9, PHENOBARBITAL AND 5,6-BENZOFLAVONE, Method: STANDARD PLATE) “inactive; negative”.
As to `CCCCOc1c(C(=O)NOC(C)=O)cccc1[N+](=O)[O-]`, the mutagenic call under setting [2] was “inactive; negative” and the mutagenic call (Test System: AMES SALMONELLA TYPHIMURIUM, Strain/Indicator: TA100, Metabolic Activation: RAT, S-9, AROCLOR, Method: STANDARD PLATE) is “active; positive”.
On to `CCC1(c2ccccc2)C(=O)N=C(O)NC1=O` (configuration not stated), for which the mutagenic call is, setting by setting: (Test System: AMES SALMONELLA TYPHIMURIUM, Strain/Indicator: TA97, Metabolic Activation: NONE, Method: STANDARD PLATE) “inactive; negative”; (Test System: AMES SALMONELLA TYPHIMURIUM, Strain/Indicator: TA97, Metabolic Activation: RAT, LIVER, S-9, AROCLOR 1254, Method: STANDARD PLATE) “inactive; negative”; under setting [1], “inactive; negative”; under setting [4], “inactive; negative”; under setting [2], “inactive; negative”; under setting [5], “inactive; negative”. In addition, the mutagenic call runs as follows: (Test System: AMES SALMONELLA TYPHIMURIUM, Strain/Indicator: TA102, Metabolic Activation: RAT, LIVER, S-9, AROCLOR 1254, Method: STANDARD PLATE) “inactive; negative”; under setting [3], “active; positive”.
Consider `Cc1ccc2c(c1)c(=NC(=O)c1cccc([N+](=O)[O-])c1)sn2C(=O)c1cccc([N+](=O)[O-])c1`, for which the mutagenic call under setting [6] was “active; positive”.
On to `C1CCNCC1`, for which the mutagenic call was “active; positive” (Test System: MOUSE LYMPHOMA, Strain/Indicator: L5178Y (TK+/TK-), Metabolic Activation: NONE, Method: SUSPENSION/PLATE) and “inactive; negative” (Test System: MOUSE LYMPHOMA, Strain/Indicator: L5178Y (TK+/TK-), Metabolic Activation: RAT, LIVER, S-9, AROCLOR 1254, Method: SUSPENSION/PLATE).
On to `Nc1ccc(/C=C\c2ccc([N+](=O)[O-])cc2)cc1`, for which the mutagenic call is “inactive; negative” (Test System: AMES SALMONELLA TYPHIMURIUM, Strain/Indicator: TA98(1,8-DNP6), Metabolic Activation: NONE, Method: STANDARD PLATE); “active; positive” (Test System: AMES SALMONELLA TYPHIMURIUM, Strain/Indicator: TA98(1,8-DNP6), Metabolic Activation: S-9, Method: STANDARD PLATE); “active; positive” under setting [1]; “active; positive” under setting [4]; “active; positive” (Test System: AMES SALMONELLA TYPHIMURIUM, Strain/Indicator: TA98, Metabolic Activation: S-9, Method: STANDARD PLATE); “inactive; negative” under setting [2]. The mutagenic call is, setting by setting: under setting [5], “active; positive”; under setting [6], “active; positive”.
For `C=C1C(=O)[C@]23CCC4[C@](C)(CCC[C@@]4(C)C(=O)O)C2CC[C@@]1(O)C3` (some centres not stated), for the setting “Test System: AMES SALMONELLA TYPHIMURIUM, Strain/Indicator: TM677, Metabolic Activation: NONE, Method: PREINCUBATION”, the mutagenic call was “active; positive”.

Source of the values: PubChem BioAssay AID1259407 (Chemical Carcinogenesis Research Information System (CCRIS), 2018).
